Laboratory results as given in patent publication US10154673B2, “Method of removing lactose from a solution” (Stellenbosch University, priority 2014, dated 2018).

Legend:
[1] = ONPG activity assay of purified free β-gal; type: biochemical; details: for Vmax / Km: free enzyme
Method: (§1) Purified β-gal was assayed using a colorimetric activity assay. Both enzymes were assayed at varying substrate concentrations. The assay took place in phosphate buffer (93 mM Sodium phosphate, 1 mM MgCl2, 112 mM β-mercaptoethanol, pH 7.3) with varying amounts of substrate concentration. The assay was performed in a BioTek® PowerWave 340 spectrophotometer at 37° C. for 5 min with a reading taken every 5 s. The buffers were preincubated at 37° C. for 30 min prior to the assay.
The activity needed to be determined for both the wildtype and E537D mutant β-gal prepared for this study, since the addition of the His-tag could influence enzyme activity. The activity of β-gal was determined using the ONPG activity assay. The kinetic parameters (Km and Vmax) were determined using the Michaelis Menten equation and Graphpad Prism® version 5 software for Windows, Graphpad Software, La Jolla Calif. USA.

[2] = Competitive activity assay (lactose as inhibitor, ONPG as substrate); type: biochemical; details: for Vmax: ONPG with lactose 6, 16 and 60 mM as competitive inhibitor; for Ki: competitive inhibition by lactose, ONPG as substrate
Method: The protocol for the above activity assay was repeated, but with the addition of lactose as an inhibitor. Lactose was added to final concentration of 6, 16 and 60 mM respectively.
The assay for the activity of β-gal, with lactose as substrate, is relatively complex and generally requires the use of HPLC. It was therefore decided to use a competitive activity assay instead. Lactose was therefore added together with ONPG to determine if the expressed enzymes did have an affinity for the natural substrate. Lactose would compete for the active site with ONPG and therefore the greater the inhibition the higher the affinity of lactose for that particular active site.
The results obtained were analysed with the aid of Michaelis Menten plots and the Ki values for lactose were determined using Graphpad Prism® version 5 for Windows, Graphpad Software, La Jolla Calif. USA.

[3] = Adsorption of β-gal onto Dynabeads (HIPD), BCA protein determination; type: binding; details: room temperature, optimal concentration
Method: To determine the amount (μg) of β-gal that was bound to Dynabeads® (HIPD), a BCA protein assay was performed according to the manufacturer's protocol. A standard curve with BSA was established in a range from 0 to 2 mg/ml. The analysis was performed at 540 nm.
A dilution series of purified β-gal wildtype and E537D mutant was prepared in a concentration range from 0 to 0.4 mg/ml. The dilution series was incubated with the beads (25 μl) for 10 min at 25° C. according to the manufacturer's protocol to ensure optimal adsorption of β-gal onto the beads. The beads were subsequently separated from the solution with a magnet and the supernatant was removed and analysed as described immediately above. The beads were then washed three times in dialysis buffer and the supernatant of the wash steps were also analysed for protein content.
The experimental procedure described above was repeated at 4 and 37° C.
Purified β-gal (wildtype and E537D mutant), was incubated with the beads (25 μl) at room temperature and optimal concentration to ensure maximum binding. The supernatant was removed from the solution at regular time intervals for 10 min. The collected fractions were assayed for protein content as described above. Analysis of β-gal bound to the beads took place with SDS-PAGE and Western blot analyses as outlined above.

[4] = Radioactive lactose binding assay (scintillation counting); details: 0.2 nmol β-gal/mg beads, 0.2 nmol 14C lactose, 5 min
Method: Immobilised β-gal (Wildtype and E537D mutant) (0.2 nmol β-gal/mg beads) was incubated with 0.2 nmol ^14C lactose in buffer (500 mM NaPO4, 300 mM NaCl, 5 mM sodium metabisulphate, 0.2% tween20, pH 8) for 5 min. The immobilised β-gal was then removed from the ^14C lactose solution with a magnet. The original 0.2 nmol C14 solution and the residual supernatant from the binding experiment were analysed with a scintillation counter.

[5] = Partition HPLC analysis of the 14C lactose binding assay; details: for hydrolysis of lactose during the binding experiment: binding assay supernatant, glucose peak at 4 min
Method: […] The immobilised β-gal was then removed from the ^14C lactose solution with a magnet. The original 0.2 nmol C14 solution and the residual supernatant from the binding experiment were analysed with a scintillation counter.
All HPLC analyses were carried out using a Carbohydrate Analysis column (Waters (WAT084038)) and a Radiomatic “Flo-one beta” A-100 radioactive flow detector at ambient temperature. An isochratic mixture of 20:80 water:acetonitrile was used as mobile phase at a flow rate of 2 ml/min. Scintillation fluid was pumped at 6 ml/min for radioactive detection. Retention times of ^14C glucose and ^14C lactose standards were determined separately. This was followed by analysis of the residual supernatant and original ^14C lactose solution from the lactose binding assay.

[6] = ONPG activity assay of immobilised wildtype β-gal; type: biochemical; details: immobilised on Dynabeads, ONPG as substrate
Method: as §1
70 μg β-gal (both E537D mutant and wildtype) were incubated for 10 min at 25° C. on a Vortex Genie 2 mixer (Healthcare technologies, South Africa) with 25 μl Dyanbeads® (HIPD). The immobilised β-gal was collected with the use of a magnet and the residual supernatant was removed for protein analysis. The beads were then washed three times and the wash supernatant was also kept and analysed for protein content.
The activity of the immobilized wildtype β-gal was determined with an ONPG activity assay as described earlier.

Row | Substance | activity lower/slower than the wildtype β-gal ([1]; ONPG activity, Vmax ratio) [×] | Vmax ([1]; ONPG as substrate (FIG. 19 B legend)) [μmol/min/protein] | Km ([1]; ONPG as substrate, 37° C.) [µM] | Vmax ([1]; ONPG as substrate, 37° C.) [μmol/min/mg protein] | Vmax [2] [µmol/min/mg] | Ki [2] [mM] | incubation time for maximum adsorption [3] [min] | percentage binding of 14C lactose from solution [4] | hydrolysis of lactose during the binding experiment [5] | hydrolysis of lactose to glucose ([5]; incubation 20 min) | hydrolysis of lactose to glucose ([5]; incubation an hour (60 min)) | hydrolysis of lactose to glucose ([5]; incubation three hours) | Km [6] [µM] | Vmax [6] [µmol/min/mg] | percentage binding of 14C lactose from solution ([4]; listed as immobilised wildtype enzyme) | Vmax ([1]; ONPG as substrate) [µmol/min/mg]
1 | E537D mutant: N-terminal His-tagged E. coli β-galactosidase with Glu537 replaced by Asp | 115 | 2 | 270 | 2 | 2 | 19 | 5 |  |  |  |  |  |  |  |  | 
2 | immobilised E537D mutant β-gal: His-tagged E537D mutant β-gal immobilised on Dynabeads (HIPD) cobalt magnetic beads |  |  |  |  |  |  |  | approximately 15% | the lactose had not been hydrolysed | relatively small glucose peak appeared | glucose peak had increased significantly | majority of the substrate had been converted to glucose |  |  |  | 
3 | immobilised wildtype β-gal: His-tagged wildtype β-gal immobilised on Dynabeads (HIPD) cobalt magnetic beads |  |  |  |  |  |  |  | not able to bind lactose | hydrolysed the lactose completely |  |  |  | 1530 | 135 | approximately 2% | 
4 | wildtype β-gal: N-terminal His-tagged wildtype E. coli β-galactosidase (lacZ product), expressed and IMAC purified [reference compound] |  |  | 220 | 230 | 230 | 12.4 | 5 |  |  |  |  |  |  |  |  | 230
